Measured values from patent publication US7976582B2, “Bleaching of substrates” (Conopco, Inc., priority 2007, dated 2011).

Tests used:
[1] = Raw cotton bleaching, high starting pH left to reduce during bleaching (Experiment 3); conditions: 10 microM catalyst, H2O2, DTPA, 77° C., 30 minutes; pH(init) 10.7, pH(final) 9.7
Description: A batch of raw cotton with a Berger Whiteness value of 0 was treated as follows: 6 grams of the cotton was immersed into temperature-controlled beaker glasses a 60 ml solution (cloth/liquor ratio of 1/10) containing 10 microM of [Mn2O3(Me3-TACN)2] (PF6)2.H2O, 2.3% H2O2 (equals to 6.66 ml (35%)/l; w/w wrt cotton), 0.4 g/l H5-DTPA (ex Akzo-Nobel; trade name Dissolvine D50; purity is 50%), and 2 g/l Sandoclean PCJ (ex Clariant). The temperature of the experiment was 77° C.
The pH of water containing Sandoclean, Na5DTPA, cotton and appropriate amount of NaOH was determined at room temperature, heated to 77° C., the pH value was monitored and then hydrogen peroxide was added. Then a correction for the addition of hydrogen peroxide was made by adding some extra NaOH. Then the catalyst was added and left for 30 minutes under stirring. The cloths were then rinsed and washed as described above. The pH of the solution after the bleaching stage was determined after allowing the solution cooled down to room temperature. As a comparative experiment to determine the effect of the manganese-triazacyclononane compound, no catalyst was added. The values of the whiteness are expressed in Berger units, as defined above.

[2] = Raw cotton bleaching, NaOH/H2O2 pretreatment without catalyst, then lower pH and add catalyst (Experiment 2)
Description: Raw cotton with a Berger Whiteness value of 5.5+/−1.0 was treated as follows: 6 grams of the cotton was immersed into temperature-controlled beaker glasses of a 60 ml solution (cloth/liquor ratio of 1/10), containing 0.5 g/l DTPA, 2 g/l Sandoclean PCJ, 2.3% H2O2 (equals to 6.66 ml (35%)/1; w/w wrt cotton), for 15 minutes at 75° C. Subsequently, sulphuric acid was added (1M) until the desired pH was added followed by 20 microM of [Mn2O3(Me3-TACN)2] (PF6)2.H2O and the mixture left for 15 minutes with continuous stirring. No NaOH solution was added during the bleaching process in the presence of catalyst. After the allocated time, the cloths are washed and dried as exemplified above. The values of the whiteness are expressed in Berger units, as defined above.
Table 2: Whiteness (Berger) results obtained using 20 microM [Mn2O3(Me3-TACN)2] (PF6)2.H2O in an unbuffered solution with 0.2 g/l DTPA at 75° C. for 15 minutes, after having the cloths allowed to pretreat with NaOH/H2O2 for 15 minutes at 75° C. (entry 1) vs adding the catalyst at the beginning of the bleaching experiment at pH 9.75.

[3] = Raw cotton bleaching, pH control by continuously adding NaOH (Experiment 1); conditions: for Whiteness (Berger) Wb: 20 microM catalyst, unbuffered, 0.2 g/l DTPA, H2O2, 80° C., 30 minutes
Description: Raw cotton with a Berger Whiteness value of 5.5+/−1.0 was treated as follows: 6 grams of the cotton was immersed into temperature-controlled beaker glasses a 60 ml solution (cloth/liquor ratio of 1/10) containing 20 microM of [Mn2O3(Me3-TACN)2] […]
Drops of NaOH (1M) were added to maintain the pH (within 0.2 pH units) for 30 minutes of agitated solutions at 75 to 80° C. The pH was monitored with a pH meter. Subsequently the cotton swatches were rinsed with 2 to 3 liters of hot demineralised water (80° C.), then washed with copious amounts of demineralised water, spun in a spin drier for 3 minutes and dried overnight under ambient conditions. The optical properties of the cloths were then measured using a Minolta spectrophotometer CM-3700d, using L, a, b values which are converted to Berger Whiteness values.
The values of the whiteness is expressed in Berger units. The formula of Berger whiteness is given below: Wberger=Y+a.Z−b.X, where a=3.448 and b=3.904.
The values X, Y, Z are the coordinates of the achromatic point.

[4] = 20° C.; cited from earlier work

For `CN1CCN(C)CCN(C)CC1.CN1CCN(C)CCN(C)CC1.F[P-](F)(F)(F)(F)F.F[P-](F)(F)(F)(F)F.O.[Mn+4].[Mn+4].[O-2].[O-2].[O-2]` [[Mn2O3(Me3-TACN)2](PF6)2•H2O, [Mn2O3(Me3-TACN)2] (PF6)2.H2O], the “Whiteness (Berger) Wb” value [1] was 57.6 Wb, the “Whiteness (Berger) Wb” value ([2]; 20 microM catalyst, 0.2 g/l DTPA, 75° C., 15 minutes after 15 minutes NaOH/H2O2 pretreatment, pH(step 1) 11, pH(step2) 10, pH(final) 9.4) was 60.0 Wb and the “Whiteness (Berger) Wb” value ([2]; catalyst added at the beginning, no pretreatment, pH 9.75, pH(final) 7.6) was 51.0 Wb. For the same molecule, the “Whiteness (Berger) Wb” value ([3]; pH(init) 9.75, pH(final) 7.3 (pH not controlled)) was 51.0 Wb, the “Whiteness (Berger) Wb” value ([3]; pH(init) 10.0, pH(final) 9.5 (pH controlled with NaOH)) was 63.1 Wb and the “Whiteness lower without DTPA than the system with DTPA” value ([3]; in the presence of catalyst, without DTPA added) was “about 10 Wb”. The water solubility [4] was 10.8 g per liter.
